In patent US10550165B2, “Peptide for inducing regeneration of tissue and use thereof” (STEMRIM INC., priority 2011, dated 2020):

Each substance was assayed on mouse bone marrow mesenchymal stem cell line (MSC-1 cells), PDGFRα-positive (assay: Migration assay (Boyden / 48-well chemotaxis chamber) on bone marrow mesenchymal stem cell line MSC-1). Conditions: peptides produced using HEK293, concentration not stated.
Format: cell-based
Method: Cells of a mouse bone marrow mesenchymal stem cell line (MSC-1 cells, established by Tamai et al. of Osaka University (PDGFRα-positive cells in bone marrow are mobilized by high mobility group box 1 (HMGB1) to regenerate injured epithelia. (Tamai et al., Proc Natl Acad Sci USA. Apr. 4, 2011))) were detached from dishes using trypsin, and collected by centrifugation at 1200 rpm and 4° C. for 10 minutes. The resulting pellet was loosened and suspended at a cell concentration of 2.0×10^6 to 3.0×10^6 cells/ml by adding Dulbecco's Modified Eagle Medium (D-MEM) containing 10% fetal bovine serum (FBS). The recombinant protein and peptides produced in HEK293 were diluted with D-MEM containing 10% FBS. The negative control used was phosphate buffered saline (PBS). An acrylic Boyden chamber was used; cells of the mouse bone marrow mesenchymal stem cell line prepared at a cell concentration of 3×10^6 cells/ml were placed in its upper layer, while a diluted protein or peptide is added to the bottom layer. More specifically, a 28 μl aliquot of a protein or peptide solution was added to each well of the bottom plate of a 48-well chemotaxis chamber (NEURO PROBE 48WELL CHEMOTAXIS CHAMBER), and a polycarbonate membrane with 8 μm pores (Neuro Probe, Inc, Cat: 866-417-0014) was placed on the bottom plate. Then, an upper plate was placed on the membrane and screwed tightly. 50 μl of cells of the mouse bone marrow mesenchymal stem cell line after concentration adjustment were added to the upper plate wells. The chamber was placed in an incubator under 5% CO2 at 37° C. After four hours, the membrane was removed from the chamber and stained with Diff-Quik (Sysmex, Cat: 16920) to detect cells that migrated through membrane pores to the lower compartment.
The peptides listed below were custom synthesized using the solid phase method by Medical & Biological Laboratories (MBL). The peptides were synthesized based on the mouse HMGB1 sequence (SEQ ID NO: 3). Synthetic peptides described in subsequent Examples were also prepared based on the mouse HMGB1 sequence. • A synthetic peptide consisting of the amino acid sequence from positions 1 to 10 of HMGB1 (1-10); • a synthetic peptide consisting of the amino acid sequence from positions 1 to 34 of HMGB1 (1-34); • a synthetic peptide consisting of the amino acid sequence from positions 37 to 62 of HMGB1 (37-62); • a synthetic peptide consisting of the amino acid sequence from positions 27 to 62 of HMGB1 (27-62); • a synthetic peptide consisting of the amino acid sequence from positions 56 to 72 of HMGB1 (56-72); • a synthetic peptide consisting of the amino acid sequence from positions 11 to 20 of HMGB1 (11-20); • a synthetic peptide consisting of the amino acid sequence from positions 11 to 25 of HMGB1 (11-25); • a synthetic peptide consisting of the amino acid sequence from positions 11 to 30 of HMGB1 (11-30); • a synthetic peptide consisting of the amino acid sequence from positions 11 to 34 of HMGB1 (11-34); • a synthetic peptide consisting of the amino acid sequence from positions 11 to 44 of HMGB1 (11-44); • a synthetic peptide consisting of the amino acid sequence from positions 17 to 44 of HMGB1 (17-44); • a synthetic peptide consisting of the amino acid sequence from positions 1 to 25 of HMGB1 (1-25); and the whole mouse HMGB1 produced in HEK293 (1-215(HEK)) as a positive control were adjusted to 100 μg/ml and placed in the lower layer of a chemotaxis chamber to assess the migration-promoting activity on bone marrow mesenchymal stem cell line (MSC-1). Results
As positive controls, centrifuged supernatant of the skin of a one-day-old mouse (one individual) incubated in PBS at 4° C. for 12 hours, and the whole mouse HMGB1 (HMGB1(HEK_1-215)) produced in HEK293 were used. […]

Substance	activity of promoting the migration of MSC-1
1-43: peptide comprising the amino acid sequence of positions 1 to 43, produced using HEK293 (MGKGDPKKPRGKMSSYAFFVQTCREEHKKKHPDASVNFSEFSK; UniProt P09429 1-43, looked up, fragment)	showed the activity of promoting the migration of bone marrow mesenchymal stem line MSC-1
1-45: peptide comprising the amino acid sequence of positions 1 to 45, produced using HEK293 (MGKGDPKKPRGKMSSYAFFVQTCREEHKKKHPDASVNFSEFSKKC; UniProt P63158 1-45, looked up, fragment)	showed the activity of promoting the migration of bone marrow mesenchymal stem line MSC-1
1-52: peptide comprising the amino acid sequence of positions 1 to 52, produced using HEK293 (MGKGDPKKPRGKMSSYAFFVQTCREEHKKKHPDASVNFSEFSKKCSERWKTM; UniProt P09429 1-52, looked up, fragment)	showed the activity of promoting the migration of bone marrow mesenchymal stem line MSC-1

Same assay, conditions: synthetic peptides, 5 μM, FIGS. 8A and 8B

Substance	migration-promoting activity
(14-25): synthetic peptide consisting of the amino acid sequence from positions 14 to 25 of HMGB1 (SSYAFFVQTCRE; UniProt P09429 14-25, looked up, fragment)	weak activity
(15-30): synthetic peptide consisting of the amino acid sequence from positions 15 to 30 of HMGB1 (SYAFFVQTCREEHKKK; UniProt P09429 15-30, looked up, fragment)	weak activity
(17-30): synthetic peptide consisting of the amino acid sequence from positions 17 to 30 of HMGB1 (AFFVQTCREEHKKK; UniProt P09429 17-30, looked up, fragment)	weak activity
(14-30): synthetic peptide consisting of the amino acid sequence from positions 14 to 30 of HMGB1 (SSYAFFVQTCREEHKKK; UniProt P09429 14-30, looked up, fragment)	strong migration-promoting activity
(12-25): synthetic peptide consisting of the amino acid sequence from positions 12 to 25 of HMGB1 (KMSSYAFFVQTCRE; UniProt P09429 12-25, looked up, fragment)	weak activity
(13-25): synthetic peptide consisting of the amino acid sequence from positions 13 to 25 of HMGB1 (MSSYAFFVQTCRE; UniProt P09429 13-25, looked up, fragment)	weak activity

Same assay, conditions: synthetic peptides, 10 μM and 5 μM, FIG. 9

Substance	migration-promoting activity
(55-84): synthetic peptide consisting of the amino acids of positions 55 to 84 (KEKGKFEDMAKADKARYEREMKTYIPPKGE; UniProt P09429 55-84, looked up, fragment)	exhibited migration-promoting activity which was however weaker as compared to synthetic peptides (1-44) and (1-34)

Same assay, conditions: synthetic peptides, 100 μg/ml, positive control 1-215(HEK), FIG. 7

Substance	migration-promoting activity
(11-34): synthetic peptide consisting of the amino acid sequence from positions 11 to 34 of HMGB1 (GKMSSYAFFVQTCREEHKKKHPDA; UniProt P09429 11-34, looked up, fragment)	activity comparable to or higher than that of the positive control
(11-30): synthetic peptide consisting of the amino acid sequence from positions 11 to 30 of HMGB1 (GKMSSYAFFVQTCREEHKKK; UniProt P09429 11-30, looked up, fragment)	activity comparable to or higher than that of the positive control
